Experimental data from patent US8222278B2, “Treatment of attention-deficit/hyperactivity disorder” (Abbott Laboratories, priority 2008, dated 2012).

Test system: adults with ADHD
Assay: Study A: treatment-emergent adverse events (safety dataset)
Protocol: During each visit, blood pressure, heart rate, weight, medication accountability and tolerability, and adverse effects were assessed.
The safety dataset consisted of all subjects who took at least one dose of study drug. The reasons for discontinuation and the treatment-emergent adverse events were summarized by the treatment under which the discontinuation or event was reported.
Treatment-emergent adverse events were those that began or worsened following the first dose of study drug in Period 1. Adverse event monitoring was conducted at each study visit and until 30 days following discontinuation of study drug. Other routine safety assessments included vital signs, electrocardiograms, physical examinations, brief neurological examinations and laboratory tests.

Clc1cc(N2C[C@@H]3CN[C@@H]3C2)cnc1Cl [ABT-894, 3-(5,6-Dichloro-pyridin-3-yl)-1S,5S-3,6-diazabicyclo[3.2.0]heptane]
Headache, number of subjects (ABT-894 4 mg BID, N = 46): 4 subjects | Lethargy, % of subjects (ABT-894 4 mg BID, N = 46): (0) % | Lethargy, number of subjects (ABT-894 4 mg BID, N = 46): 0 subjects | Muscle Strain, % of subjects (ABT-894 4 mg BID, N = 46): (0) % | Muscle Strain, number of subjects (ABT-894 4 mg BID, N = 46): 0 subjects | Nasal congestion, % of subjects (ABT-894 4 mg BID, N = 46): (6.5) % | Nasal congestion, number of subjects (ABT-894 4 mg BID, N = 46): 3 subjects | Nausea, % of subjects (ABT-894 4 mg BID, N = 46): (8.7) % | Nausea, number of subjects (ABT-894 4 mg BID, N = 46): 4 subjects | Parathesia, % of subjects (ABT-894 4 mg BID, N = 46): (0) % | Parathesia, number of subjects (ABT-894 4 mg BID, N = 46): 0 subjects | Sleep disturbances, % of subjects (ABT-894 4 mg BID, N = 46): (4.3) % | Sleep disturbances, number of subjects (ABT-894 4 mg BID, N = 46): 2 subjects | Somnolence, % of subjects (ABT-894 4 mg BID, N = 46): (4.3) % | Somnolence, number of subjects (ABT-894 4 mg BID, N = 46): 2 subjects | Upper RTI, % of subjects (ABT-894 4 mg BID, N = 46): (0) % | Upper RTI, number of subjects (ABT-894 4 mg BID, N = 46): 0 subjects | Vomiting, % of subjects (ABT-894 4 mg BID, N = 46): (2.2) % | Vomiting, number of subjects (ABT-894 4 mg BID, N = 46): 1 subjects | Any Adverse Event, % of subjects (ABT-894 4 mg QD, N = 40): (65.0) % | Any Adverse Event, number of subjects (ABT-894 4 mg QD, N = 40): 26 subjects | Decreased appetite, % of subjects (ABT-894 4 mg QD, N = 40): (5.0) % | Decreased appetite, number of subjects (ABT-894 4 mg QD, N = 40): 2 subjects | Diarrhea, % of subjects (ABT-894 4 mg QD, N = 40): (7.5) % | Diarrhea, number of subjects (ABT-894 4 mg QD, N = 40): 3 subjects | Dizziness, % of subjects (ABT-894 4 mg QD, N = 40): (10.0) % | Dizziness, number of subjects (ABT-894 4 mg QD, N = 40): 4 subjects | Dry mouth, % of subjects (ABT-894 4 mg QD, N = 40): (0) % | Dry mouth, number of subjects (ABT-894 4 mg QD, N = 40): 0 subjects | Fatigue, % of subjects (ABT-894 4 mg QD, N = 40): (5.0) % | Fatigue, number of subjects (ABT-894 4 mg QD, N = 40): 2 subjects | Feeling hot and cold, % of subjects (ABT-894 4 mg QD, N = 40): (0) % | Feeling hot and cold, number of subjects (ABT-894 4 mg QD, N = 40): 0 subjects | Feeling jittery, % of subjects (ABT-894 4 mg QD, N = 40): (0) % | Feeling jittery, number of subjects (ABT-894 4 mg QD, N = 40): 0 subjects | Headache, % of subjects (ABT-894 4 mg QD, N = 40): (12.5) % | Headache, number of subjects (ABT-894 4 mg QD, N = 40): 5 subjects | Lethargy, % of subjects (ABT-894 4 mg QD, N = 40): (2.5) % | Lethargy, number of subjects (ABT-894 4 mg QD, N = 40): 1 subjects | Muscle Strain, % of subjects (ABT-894 4 mg QD, N = 40): (0) % | Muscle Strain, number of subjects (ABT-894 4 mg QD, N = 40): 0 subjects | Nasal congestion, % of subjects (ABT-894 4 mg QD, N = 40): (0) % | Nasal congestion, number of subjects (ABT-894 4 mg QD, N = 40): 0 subjects | Nausea, % of subjects (ABT-894 4 mg QD, N = 40): (22.5) % | Nausea, number of subjects (ABT-894 4 mg QD, N = 40): 9 subjects | Parathesia, % of subjects (ABT-894 4 mg QD, N = 40): (0) % | Parathesia, number of subjects (ABT-894 4 mg QD, N = 40): 0 subjects | Sleep disturbances, % of subjects (ABT-894 4 mg QD, N = 40): (7.5) % | Sleep disturbances, number of subjects (ABT-894 4 mg QD, N = 40): 3 subjects | Somnolence, % of subjects (ABT-894 4 mg QD, N = 40): (0) % | Somnolence, number of subjects (ABT-894 4 mg QD, N = 40): 0 subjects | Upper RTI, % of subjects (ABT-894 4 mg QD, N = 40): (7.5) % | Upper RTI, number of subjects (ABT-894 4 mg QD, N = 40): 3 subjects | Vomiting, % of subjects (ABT-894 4 mg QD, N = 40): (10.0) % | Vomiting, number of subjects (ABT-894 4 mg QD, N = 40): 4 subjects | Any Adverse Event, number of subjects (Total ABT-894, N = 174): 109 subjects | Decreased appetite, % of subjects (Total ABT-894, N = 174): (1.1) % | Decreased appetite, number of subjects (Total ABT-894, N = 174): 2 subjects | Diarrhea, % of subjects (Total ABT-894, N = 174): (3.4) % | Diarrhea, number of subjects (Total ABT-894, N = 174): 6 subjects | Dizziness, % of subjects (Total ABT-894, N = 174): (6.3) % | Dizziness, number of subjects (Total ABT-894, N = 174): 11 subjects | Dry mouth, % of subjects (Total ABT-894, N = 174): (1.7) % | Dry mouth, number of subjects (Total ABT-894, N = 174): 3 subjects | Fatigue, % of subjects (Total ABT-894, N = 174): (5.2) % | Fatigue, number of subjects (Total ABT-894, N = 174): 9 subjects | Feeling hot and cold, % of subjects (Total ABT-894, N = 174): (0) % | Feeling hot and cold, number of subjects (Total ABT-894, N = 174): 0 subjects | Feeling jittery, % of subjects (Total ABT-894, N = 174): (0) % | Feeling jittery, number of subjects (Total ABT-894, N = 174): 0 subjects | Headache, % of subjects (Total ABT-894, N = 174): (10.3) % | Headache, number of subjects (Total ABT-894, N = 174): 18 subjects | Lethargy, % of subjects (Total ABT-894, N = 174): (0.6) % | Lethargy, number of subjects (Total ABT-894, N = 174): 1 subjects | Muscle Strain, % of subjects (Total ABT-894, N = 174): (1.7) % | Muscle Strain, number of subjects (Total ABT-894, N = 174): 3 subjects | Nasal congestion, % of subjects (Total ABT-894, N = 174): (1.7) % | Nasal congestion, number of subjects (Total ABT-894, N = 174): 3 subjects | Nausea, number of subjects (Total ABT-894, N = 174): 21 subjects | Parathesia, % of subjects (Total ABT-894, N = 174): (0) % | Parathesia, number of subjects (Total ABT-894, N = 174): 0 subjects | Sleep disturbances, % of subjects (Total ABT-894, N = 174): (7.5) % | Sleep disturbances, number of subjects (Total ABT-894, N = 174): 13 subjects | Somnolence, % of subjects (Total ABT-894, N = 174): (4.6) % | Somnolence, number of subjects (Total ABT-894, N = 174): 8 subjects | Upper RTI, % of subjects (Total ABT-894, N = 174): (4.0) % | Upper RTI, number of subjects (Total ABT-894, N = 174): 7 subjects | Vomiting, % of subjects (Total ABT-894, N = 174): (3.4) % | Vomiting, number of subjects (Total ABT-894, N = 174): 6 subjects | Safety and tolerability (adults with ADHD, all doses): generally was safe and well tolerated
